Assay results from patent US11207379B2, “Peptides with anti-cancer activity” (IDP DISCOVERY PHARMA, S.L., priority 2016, dated 2021).
Like-named read-outs stand apart in the source and are kept apart here. Bridge positions count the residues as written; N and C are the ends. Square brackets hold non-standard residues; d marks the D form. Ends that are not written are not given here. Peptide text beside a SMILES is read from it. R8 = C=CCCCCCC[C@@](C)(N)C(=O)O; S5 = C=CCCC[C@](C)(N)C(=O)O

Key:
Experiment in all cases: Viability assay (MTT, Alamar Blue, hexosaminidase), 72 h
Type in all cases: cell-based
[1] = biological target: MM.1S, B Lymphoblast (multiple myeloma)
Procedure: MM.1S, B Lymphoblast (multiple myeloma), ATCC: CRL-2974
(§1) Cell lines A549, MCF-7 and RAMOS were cultured in incubator under CO2 (6%) at 37° C. in DMEM high glucose (Dulbecco's Modified Eagle Solution, Gibco-BRL 31966-21) medium with 10% fetal bovine serum inactivated (FBS) (Gibco-BRL 10106-169). Cell lines HL-60 and MM.1S were cultured in incubator at 37° C. in RPMI-1640 (Sigma R8758) medium with 10% of fetal bovine serum inactivated (FBS) and 2 mM glutamine (Sigma G7513). Cell lines BJ were cultured in incubator under CO2 (6%) at 37° C. in Eagle's Minimum Essential Medium (Sigma, M-2279) with 10% fetal bovine serum inactivated (FBS) (Gibco-BRL 10106-169).
(§2) During the amplification step and the assays adherent cells were rinsed with DPBS (Dulbecco's Phosphate Buffered Saline, Sigma D1283) three times and afterward treated for 5 minutes with trypsin ([…]) (Gibco-BRL, 15400054) in solution of DPBS at 37° C., and, once detached, transferred in the culturing medium. No-adherent cells were centrifuged and transferred in the culturing medium. Cells were counted in a Neubauer chamber after labelling with Tripan-Blue.
(§3) A549, MCF-7 and JB cells were seeded at a density of 5000 cells/well and HL-60, MM.1S and Ramos at 10000 cells/well in 100 μl of medium in 96 well plates. After 24 h, the compounds to be tested were added to calculate the dose/response curve at the starting concentration of 100 μM with serial dilutions (1:1). Controls are the untreated cells. Each experiment was performed in triplicate.
(§4) Cells were incubated during 72 h in incubator under CO2 atmosphere at 37° C. Cell viability was measured by means of MTT (3-(4,5-dimethylthiazol-2-yl)-2.5-diphenyltetrazolium bromide) assay, Alamar Blue® (Biosource DAL1100) and Hexosaminidase activity test, consecutively, following manufacturer instructions.
(§5) MTT: 1. Stock solution of MTT (475989 Calbiochem) was 5 mg/ml in PBS 1×. As negative control (experiment noise) 3 wells were treated with 20 μl/well of a solution of SDS 10% in H2O. The same control was used for Alamar Blue/Hexosaminidase. 10 μl/well of MTT solution were added and the plate was incubated for 3-4 hr. The medium was discarded and 100 μl of extracting buffer (PBS 1×, 15% SDS, 50% […] N,N-Dimethylformamide, pH 4.7) were added to each well. Plates were incubated for 16 h at room temperature under orbital shaking. Absorbance at 570 nm was finally measured.
(§6) Alamar Blue: 10 μl Alamar Blue solution was added to each well and the plates were incubated for […] in the incubator. Fluorescence ratio at 535/590 (excitation/emission) was measured in Cytofluor (Millipore) fluorimeter. Blank control was determined by lysis of untreated cells with con 2% of Triton X100, right before adding Alamar Blue solution.
(§7) Hexosaminidase activity test: after Alamar Blue lecture, medium was discarded and plates were rinsed once with PBS. 60 μl hexosaminidase substrate (p-nitrophenol-N-acetyl-beta-D-glucosamide 7.5 mM [Sigma N-9376], sodium citrate 0.1 M, pH 5.0, 0.25% Triton X-100) was added to each well and the plates were incubated at 37° C. for 2-5 h, according to the cell type (hexosaminidase activity changes according to the cell type). […] Blank control was the same as described before.
(§8) Data analysis was performed calculating the percentage of cell viability normalized vs. the values of negative control, which was considered equal to 100%. The dose/response curve was fitted through the sigmoidal equation dose-response (variable slope) and the EC50 values were calculated as follow: Y=Bottom+(Top−Bottom)/(1+10^{[(Log EC50−X)*HillSlope]},

[2] = biological target: HL-60, promyeloblast (acute myelocytic leukemia, AML)
Procedure: HL-60, promyeloblast (acute myelocytic leukemia, AML), ECACC: 98070106
as §1, §2, §3, §4, §5, §6, §7, §8

[3] = biological target: A549, epithelial (lung cancer)
Procedure: A549, epithelial (lung cancer), ATCC:CCL-185
as §1, §2, §3, §4, §5, §6, §7, §8

[4] = biological target: RAMOS, B lymphocyte (Burkitt's Lymphoma)
Procedure: RAMOS, B lymphocyte (Burkitt's Lymphoma), ATCC: CRL-1596
as §1, §2, §3, §4, §5, §6, §7, §8

[5] = biological target: MCF-7, epithelial (breast cancer)
Procedure: MCF-7, epithelial (breast cancer), ECACC: 86012803
as §1, §2, §3, §4, §5, §6, §7, §8

Row | Compound | EC50 ([1]; MM.1S cells, read-out: EC50) | EC50 ([2]; HL-60 cells, read-out: EC50) | EC50 ([3]; A549 cells, read-out: EC50) | EC50 ([4]; Ramos cells, read-out: EC50) | EC50 ([5]; MCF7 cells, read-out: EC50) | EC50 [1] | EC50 [2] | EC50 [3] | EC50 [4] | EC50 [5]
1 | CCc1ccc(/C=C2/SC(=S)NC2=O)cc1 [10058-F4, reference compound] | > 100 µM | 54 ± 2 µM | > 100 µM | ~57 µM | ~52 µM |  |  |  |  | 
2 | CC(C)C[C@@H]1NC(=O)[C@H](C)NC(=O)[C@H](C)NC(=O)[C@H](Cc2ccccc2)NC(=O)[C@](C)(NC(=O)[C@H](CCCNC(=N)N)NC(=O)[C@H](CCCCN)NC(=O)[C@H](CC(C)C)NC(=O)[C@H](CCC(=O)O)NC(=O)[C@H](CC(N)=O)NC(=O)[C@H](CCCNC(=N)N)NC(=O)[C@H](CCCNC(=N)N)NC(=O)[C@H](CCC(N)=O)NC(=O)[C@@H](N)CCCNC(=N)N)CCCCCC/C=C\CCC[C@@](C)(C(N)=O)NC(=O)[C@H](CC(=O)O)NC(=O)[C@H](CCCNC(=N)N)NC1=O [IDP-S04, RQRRNELKRXFAALRDX-H2] (H-RQRRNELKR[R8]FAALRD[S5]-NH2; staple (Z) 10-17; N-terminus assumed) | 19 ± 1 µM | ~24 µM |  | ~64 µM | ~60 µM |  |  |  |  | 
3 | CC(C)C[C@@H]1NC(=O)[C@H](C)NC(=O)[C@H](Cc2ccccc2)NC(=O)[C@H](Cc2ccccc2)NC(=O)[C@](C)(NC(=O)[C@H](CCCNC(=N)N)NC(=O)[C@H](CCCCN)NC(=O)[C@H](CC(C)C)NC(=O)[C@H](CCC(=O)O)NC(=O)[C@@H](N)CC(N)=O)CCCCCC/C=C\CCC[C@@](C)(C(N)=O)NC(=O)[C@H](CC(=O)O)NC(=O)[C@H](CCCNC(=N)N)NC1=O [IDP-S13, NELKRXFFALRDX-NH2] (H-NELKR[R8]FFALRD[S5]-NH2; staple (Z) 6-13; N-terminus assumed) | > 100 µM | > 100 µM |  | > 100 µM | > 100 µM |  |  |  |  | 
4 | CC[C@H](C)[C@H](NC(=O)[C@@H](NC(=O)[C@@H](NC(=O)[C@H](CCCCN)NC(=O)[C@@H]1CCCN1C(=O)[C@H](C)N)C(C)C)C(C)C)C(=O)N[C@]1(C)CCCCCC/C=C\CCC[C@@](C)(C(=O)N[C@@H](CC(C)C)C(=O)N[C@@H](CO)C(N)=O)NC(=O)[C@H](Cc2ccc(O)cc2)NC(=O)[C@H](C)NC(=O)[C@H]([C@@H](C)O)NC(=O)[C@H](C)NC(=O)[C@H](CCCCN)NC(=O)[C@H](CCCCN)NC1=O [IDP-S17, APKVVIXKKATAYXLS] (H-APKVVI[R8]KKATAY[S5]LS-NH2; staple (Z) 7-14; N-terminus and C-terminus assumed) |  |  |  |  |  | > 100 µM | > 100 µM | > 100 µM | > 100 µM | > 100 µM
5 | CC[C@H](C)[C@@H]1NC(=O)[C@H](Cc2ccc(O)cc2)NC(=O)[C@H](C)NC(=O)[C@H]([C@@H](C)O)NC(=O)[C@H](C)NC(=O)[C@H](CCCCN)NC(=O)[C@](C)(NC(=O)[C@H](CC(C)C)NC(=O)[C@@H](NC(=O)[C@@H](NC(=O)[C@@H](NC(=O)[C@H](CCCCN)NC(=O)[C@@H]2CCCN2C(=O)[C@H](C)N)C(C)C)C(C)C)[C@@H](C)CC)CCCCCC/C=C\CCC[C@@](C)(C(=O)N[C@@H](CO)C(N)=O)NC1=O [IDP-S18, APKVVILXKATAYIXS] (H-APKVVIL[R8]KATAYI[S5]S-NH2; staple (Z) 8-15; N-terminus and C-terminus assumed) |  |  |  |  |  | > 100 µM | > 100 µM | > 100 µM | > 100 µM | > 100 µM
6 | CC[C@H](C)[C@H](NC(=O)[C@]1(C)CCC/C=C\CCCCCC[C@@](C)(NC(=O)[C@@H](NC(=O)[C@@H](NC(=O)[C@H](CCCCN)NC(=O)[C@@H]2CCCN2C(=O)[C@H](C)N)C(C)C)C(C)C)C(=O)N[C@@H](CC(C)C)C(=O)N[C@@H](CCCCN)C(=O)N[C@@H](CCCCN)C(=O)N[C@@H](C)C(=O)N[C@@H]([C@@H](C)O)C(=O)N[C@@H](C)C(=O)N1)C(=O)N[C@@H](CC(C)C)C(=O)N[C@@H](CO)C(N)=O [IDP-S22, APKVVXLKKATAXILS] (H-APKVV[R8]LKKATA[S5]ILS-NH2; staple (Z) 6-13; N-terminus and C-terminus assumed) |  |  |  |  |  | > 100 µM | > 100 µM | > 100 µM | > 100 µM | > 100 µM
7 | APKXVIFKKAXAYILS-OH [IDP-S14] | 6.6 ± 0.9 µM | 7.8 ± 0.4 µM | 9.1 ± 0.8 µM | 55 µM |  |  |  |  |  | 
8 | QRRNXLKRAFAXLRD-OH [IDP-S312] | ~25 µM |  |  |  |  |  |  |  |  | 
9 | RQRRNELKRSFFALRDQ [IDP-L11, RQRRNELKRSFFALRDQ] |  |  |  |  |  | > 100 µM | > 100 µM |  | > 100 µM | > 100 µM
10 | RQRRNELKRXFFALRDX-NH2 [IDP-S12] | 22 ± 2 µM | 23 ± 1 µM | 50 µM | 52 ± 2 µM | 42 ± 2 µM |  |  |  |  | 
11 | RQRRNXLKRAFAXLRD-OH [IDP-S311] | ~15 µM |  |  |  |  |  |  |  |  | 
